Measured values reported in patent US20140271573A1, “PHARMACO-CELLULAR THERAPEUTIC METHOD FOR THE TREATMENT OF MUSCULAR DYSTROPHIES” (PONTIFICIA UNIVERSIDAD CATÓLICA DE CHILE, priority 2013, published 2014).
“Also recorded” adds a separate entry of the source.

Key:
Type in all cases: in vivo, mouse
mdx mice [1] = test: Migration of DiI-labeled tendon fibroblasts injected into tibialis anterior of mdx mice; details: mdx mice pre-treated 1 mg/Kg, tendon fibroblasts injected one week after treatment, analysed after one month, vs vehicle
Description: FIG. 7. Andrographolide increases cell migration through fibrosis inhibition. A) Migration of DiI-labeled tendon fibroblast cells after injection into the tibialis anterior of 7-month-old mdx mice (3 months old mdx mice exercised for four months). […] B) Quantitative analysis of the spreading DiI-labeled tendon fibroblast cells was calculated by counting DiI-labeled cells in 200 μm×200 μm squares from three non-serial transverse sections for three mice per group.
3 month old mdx mice were exercised for 4 months and treated with 1 mg/Kg andrographolide or Vehicle. One week after the treatment, mice were anesthetized with an intramuscular injection of physiologic saline (10 ml kg^−1) containing ketamine (5 mg ml^−1) and xylazine (1 mg ml^−1) and then injected with approximately 5×10^5 tendon fibroblasts into the tibialis anterior muscle via a 0.20-mm diameter needle inserted along the cranio-caudal axis of the muscle as previously described (Gargioli et al., 2008). Fibroblasts were previously labeled with 2 mMDiI according to the protocol supplied by the manufacturer (Molecular Probes). One month after the injection, mice were sacrificed for morphological analyses.

mdx mice [2] = test: Contractile properties (isometric force) of isolated tibialis anterior muscle of mdx mice; details: isolated tibialis anterior of treated mdx mice, vs vehicle-treated mdx
Description: FIG. 6. Andrographolide increased skeletal muscle strength and exercise performance in mdx mice. 3 months old Wild Type (WT) and mdx mice were subjected to an exercise protocol for 3 months to augment the extent of muscle fibrosis. Along this period one group was treated with 1 mg/kg andrographolide or vehicle (i.p. injections 3 time per week, 6 animal per group). A) tibialis anterior muscles from wild-type (WT), Vehicle-treated mdx and andrographolide-treated mdx mice were isolated to evaluate isometric specific force (mN/mm2) at different stimulation frequencies (pulses per second, pps). B) Bar graph showing tetanic specific force. Values are represented as percentage of specific isometric force generated by Wild type muscle (*, P<0.05 relative to WT mice; #, P<0.05 relative to Vehicle-treated mdx mice). C) Bar graph showing twitch force (*, P<0.05 relative to WT mice; #, P<0.05 relative to Vehicle-treated mdx mice). D) Mice were subjected to an exercise challenge into the treadmill at 15 meters/min for 5 minutes and the number of stebacks was counted (*, P<0.05 relative to WT mice; #, P<0.05 relative to Vehicle-treated mdx mice).
Control or mdx (12 weeks old) male mice of C57BL/10 ScSn strain were studied. The animals were kept at room temperature with a […] night-day cycle and fed with pellets and water ad libitum. Experimental exercise was performed for running the mice in a treadmill for three times per week, 30 minutes each time at 12 m/min during 3 or 4 months (De Luca et al., 2005; De Luca et al., 2003). […]
The isometric force of isolated muscles were measured as described previously (Cabello-Verrugio et al., 2012). Briefly, optimum muscle length (Lo) and stimulation voltage were determined from micromanipulation of muscle length to produce maximum isometric twitch force. Maximum isometric tetanic force (Po) was determined from the plateau of the frequency-force relationship after successive stimulations at 1 to 200 Hz for 450 ms, with 2-minute rests between stimuli. […]

mdx mice [3] = test: Satellite cell graft into tibialis anterior of andrographolide pre-treated mdx mice
Description: FIG. 8. Muscle stem cell therapy with satellite cells is improved by reducing the muscle fibrosis by the treatment with andrographolide. A) 3 months old mdx mice were subjected to an exercise protocol for 4 months to augment the extent of muscle fibrosis. During this period one group was treated with andrographolide or vehicle (i.p. injections 3 time per week, 6 animal per group). 1 week after the last drug administration (7 month old mice), 500 freshly isolated satellite cells (SC) purified from WT mice were transplanted in both tibialis anterior muscle of each mdx mouse. 4 weeks after the engraftment the number of fibers expressing dystrophin and collagen I were determined by immunofluorescence on cryosections. The images are representative of 2 experimental group with 6 mice per group. B) Quantification of the data obtained in A showing the number of myofibers expressing dystrophin per tibialis anterior muscle in each case. C) The number of satellite cells (PAX-7 positive nuclei) were determined on isolated single muscle fibers from extensor digitoriumlongus muscle (EDL) in each case as indicative of the endogenous SC survival.
The isolation of single myofibers were prepared essentially as described (Kelly et al., 1995, Collins 2005), briefly extensor digitorium (EDL) and soleus muscles from 6 weeks old C57-BL10 mice were dissected and digested in 0.2% (w/v) collagenase type 1 (Sigma) in DMEM (Gibco) 4 mM L-glutathatmine (Sigma) and 1% penicillin and streptomycin solution (Sigma) for […] in a 37° C. water bath. After gentle muscle trituration only single and stretched myofibers were collected in DMEM. The myofibers were washed by serial transfers in 4 dishes (pre-coated with horse serum to prevent myofiber attachment) containing DMEM. The myofibers were finally collected in DMEM containing 10% FBS, 10% horse serum, 0.5% chick embryo extract and 5 ng/ml of FGF-2 (R&D) and cultured for 30 min in a 5% CO2 cell culture incubator.
Satellite cells were separated from the myofibers by physical trituration using the method of Collins et al (2005). Briefly, the isolated intact fibers were suspended in 10 ml of complete medium and triturated with a 19 G needle mounted on a 1 ml syringe. The suspension was sequentially passed through a 70 um and 40 um cell sieve (Falcon) to remove debris. The satellite cell suspension was centrifuged for 15 min at 450 RCF. The pellet was resuspended in physiologic serum (NaCl 0.9%). An aliquot was stained with Hoechst 1 ug/ml and cholera toxin sub unit B conjugated to Alexa Fluor 488 (Invitrogen) 1 ug/ml for 5 minutes, washed with PBS and incubated with trypan blue. The double stained cells that exclude the trypan blue were counted in a hemocytometer as viable cells. The concentration of cells was adjusted to 25 cell/μl. […]

Compound: C=C1CC[C@@H]2[C@](C)(CO)[C@H](O)CC[C@@]2(C)[C@@H]1C/C=C1/C(=O)OC[C@H]1O [andrographolide]
- DiI-labeled cell distribution in muscle (mdx mice [1]): distributed more homogenously; also recorded: more homogenous
- generation of isometric force (mdx mice [2]; frequencies between 50 and 100 Hz): significant increase
- tetanic force (mdx mice [2]): significant increase
- twitch force (mdx mice [2]): significant increase
- increase in number of dystrophin positive fibers compared to controls (mdx mice [3]; mdx mice pre-treated with andrographolide, 500 WT satellite cells grafted per tibialis anterior, one month after transplantation): 3 times
- collagen-I content after satellite cell transplantation (mdx mice [3]; mdx mice pre-treated with andrographolide, one month after transplantation, immunofluorescence): clear reduction
- change in number of satellite cells present on isolated EDL myofibers (mdx mice [3]; same transplanted mdx mice, PAX-7 positive nuclei, endogenous satellite cells): no changes
- mean satellite cells per EDL myofiber (mdx mice [3]; same transplanted mdx mice, no change between treated and untreated): 12.5 satellite cells per EDL myofiber
